Data taken from patent US20120157439A1, “RAF INHIBITOR COMPOUNDS AND METHODS OF USE THEREOF” (GENENTECH, INC., priority 2009, published 2012).
Like-named read-outs stand apart in the source and are kept apart here.

Biological target: T1, V600E full-length B-Raf (Homo sapiens, UniProt P15056, V600E)
T1 construct: 1 μM FSBA-MEK and 20 nM V600E full-length B-Raf; made in house; host or cells: sf9 insect cells (baculovirus)
Experiment: B-Raf IC50 Assay (B-RAF V600E inhibition assay, Example A)
Assay type: biochemical
How it was run: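 Full-length V600E B-Raf (20 nM, from Sf9 baculovirus) was preincubated 15 min with 1 μM FSBA-modified wild-type MEK in pH 7.2 Pipes/KCl/MgCl2 buffer, then started with 4 μM ATP plus [γ-33P]ATP. After 60 min at 22 °C, TCA-quenched product was filter-captured and 33P incorporation counted by scintillation.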

[1] = B-Raf V600E assay of Example A: less than 100 nM, read-out: IC50
[2] = B-Raf V600E assay of Example A: less than about 1 μM, read-out: IC50
[3] = incorporation of radio labeled phosphate from [γ-33P]ATP into FSBA-modified wild-type MEK, 4 μM ATP, 20 nM V600E full-length B-Raf, 60-minute incubation, 22° C., read-out: BRAF V600E IC50

T1 sequence (P15056 whole entry V600E): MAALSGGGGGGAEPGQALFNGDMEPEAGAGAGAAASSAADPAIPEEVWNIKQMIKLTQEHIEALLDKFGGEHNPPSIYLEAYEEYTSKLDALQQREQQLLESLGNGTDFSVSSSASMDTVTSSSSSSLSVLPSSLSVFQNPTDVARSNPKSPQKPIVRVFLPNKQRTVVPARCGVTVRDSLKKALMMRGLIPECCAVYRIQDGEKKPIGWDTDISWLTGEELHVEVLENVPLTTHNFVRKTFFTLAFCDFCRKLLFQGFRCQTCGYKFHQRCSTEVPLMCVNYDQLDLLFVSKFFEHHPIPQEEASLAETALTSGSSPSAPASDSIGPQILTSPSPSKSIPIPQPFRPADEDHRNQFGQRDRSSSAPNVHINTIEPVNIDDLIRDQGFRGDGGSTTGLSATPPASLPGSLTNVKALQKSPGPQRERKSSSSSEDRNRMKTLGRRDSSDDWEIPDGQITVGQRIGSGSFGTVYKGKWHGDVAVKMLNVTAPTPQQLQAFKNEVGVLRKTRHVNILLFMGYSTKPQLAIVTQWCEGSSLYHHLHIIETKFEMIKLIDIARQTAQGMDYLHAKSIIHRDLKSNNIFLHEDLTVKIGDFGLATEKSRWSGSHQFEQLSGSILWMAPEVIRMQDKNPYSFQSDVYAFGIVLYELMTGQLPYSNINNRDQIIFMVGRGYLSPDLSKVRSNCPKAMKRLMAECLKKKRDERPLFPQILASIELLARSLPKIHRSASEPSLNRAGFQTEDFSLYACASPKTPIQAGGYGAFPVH

SMILES	IC50 [1] [nM]	IC50 [2] [nM]	IC50 [3] [nM]
CCCS(=O)(=O)Nc1ccc(Cl)c(NC(=O)c2csc3c(NC#N)ncnc23)c1Cl [Example 73, 4-Cyano-amino-thieno[3,2-d] pyrimidine-7-carboxylic acid [2,6-dichloro-3-(propane-1-sulfonyl-amino)-phenyl]amide]	< 100	< 1000	14
CCCS(=O)(=O)Nc1ccc(Cl)c(NC(=O)c2csc3c(NCCF)ncnc23)c1Cl [Example 74, 4-(2-Fluoro-ethylamino)-thieno[3,2-d] pyrimidine-7-carboxylic acid [2,6-dichloro-3-(propane-1-sulfonyl-amino)-phenyl]amide]	< 100	< 1000	0.5
CCCS(=O)(=O)Nc1ccc(Cl)c(NC(=O)c2csc3c(NC4CN(C)C4)ncnc23)c1Cl [Example 75, 4-(1-Methyl-azetidin-3-ylamino)-thieno[3,2-d] pyrimidine-7-carboxylic acid [2,6-dichloro-3-(propane-1-sulfonyl-amino)-phenyl]amide]	–	–	> 1000
CCCS(=O)(=O)Nc1ccc(Cl)c(NC(=O)c2csc3c(NCC)ncnc23)c1Cl [Example 76, 4-Ethylamino-thieno[3,2-d] pyrimidine-7-carboxylic acid [2,6-dichloro-3-(propane-1-sulfonyl-amino)-phenyl]-amide]	< 100	< 1000	0.6
CCCS(=O)(=O)Nc1ccc(Cl)c(NC(=O)c2csc3c(NC4CCOCC4)ncnc23)c1Cl [Example 77, 4-(Tetrahydro-pyran-4-ylamino)-thieno[3,2-d] pyrimidine-7-carboxylic acid [2,6-dichloro-3-(propane-1-sulfonyl-amino)-phenyl]-amid]	< 100	< 1000	77.5
CCCS(=O)(=O)Nc1ccc(Cl)c(NC(=O)c2csc3c(NCC(F)(F)F)ncnc23)c1Cl [Example 78, 4-(2,2,2-Trifluoro-ethylamino)-thieno[3,2-d] pyrimidine-7-carboxylic acid [2,6-dichloro-3-(propane-1-sulfonyl-amino)-phenyl]-amide]	< 100	< 1000	11.7
CCCS(=O)(=O)Nc1ccc(Cl)c(NC(=O)c2csc3c(NC4CCNCC4)ncnc23)c1Cl [Example 79, 4-(Piperidin-4-ylamino)-thieno[3,2-d] pyrimidine-7-carboxylic acid [2,6-dichloro-3-(propane-1-sulfonyl-amino)-phenyl]amide]	–	< 1000	159
CCCS(=O)(=O)Nc1ccc(Cl)c(NC(=O)c2csc3c(NC4CCC(F)(F)CC4)ncnc23)c1Cl [Example 80, 4-(4,4-Difluoro-cyclohexyl-amino)-thieno[3,2-d] pyrimidine-7-carboxylic acid [2,6-dichloro-3-(propane-1-sulfonyl-amino)-phenyl]-amide]	–	< 1000	419
CCCS(=O)(=O)Nc1ccc(Cl)c(NC(=O)c2csc3c(NC4CCCCC4)ncnc23)c1Cl [Example 81, 4-Cyclohexyl-amino-thieno [3,2-d] pyrimidine-7-carboxylic acid [2,6-dichloro-3-(propane-1-sulfonyl-amino)-phenyl]-amide]	–	< 1000	110
O=C(Nc1c(Cl)ccc(NS(=O)(=O)CCCF)c1Cl)c1csc2c(NC3CC3)ncnc12 [Example 82, 4-Cyclopropyl-amino-thieno [3,2-d] pyrimidine-7-carboxylic acid [2,6-dichloro-3-(3-fluoro-propane-1-sulfonyl-amino)-phenyl]-amide]	< 100	< 1000	0.13
CCNc1ncnc2c(C(=O)Nc3c(Cl)ccc(NS(=O)(=O)CCCF)c3Cl)csc12 [Example 83, 4-Ethylamino-thieno[3,2-d] pyrimidine-7-carboxylic acid [2,6-dichloro-3-(3-fluoro-propane-1-sulfonyl-amino)-phenyl]-amide]	< 100	< 1000	0.32
O=C(Nc1c(Cl)ccc(NS(=O)(=O)CCCF)c1F)c1csc2c(NC3CC3)ncnc12 [Example 84, 4-Cyclopropyl-amino-thieno [3,2-d] pyrimidine-7-carboxylic acid [6-chloro-2-fluoro-3-(3-fluoropropane-1-sulfonyl-amino)-phenyl]-amide]	< 100	< 1000	0.25
CCCS(=O)(=O)Nc1cc(F)c(F)c(NC(=O)c2csc3c(NCC)ncnc23)c1F [Example 85, 4-Ethylamino-thieno[3,2-d] pyrimidine-7-carboxylic acid [2,3,6-trifluoro-5-(propane-1-sulfonyl-amino)-phenyl]-amide]	< 100	< 1000	5.1
CCCS(=O)(=O)Nc1cc(F)c(F)c(NC(=O)c2csc3c(NC4CC4)ncnc23)c1F [Example 86, 4-Cyclopropyl-amino-thieno [3,2-d] pyrimidine-7-carboxylic acid [2,3,6-trifluoro-5-(propane-1-sulfonyl-amino)-phenyl]-amide]	< 100	< 1000	1.2
CCCS(=O)(=O)Nc1cc(F)c(F)c(NC(=O)c2csc3c(NC4COC4)ncnc23)c1F [Example 87, 4-(Oxetan-3-ylamino)-thieno[3,2-d] pyrimidine-7-carboxylic acid [2,3,6-trifluoro-5-(propane-1-sulfonyl-amino)-phenyl]amid]	< 100	< 1000	15.1
CCCS(=O)(=O)Nc1cc(F)c(F)c(NC(=O)c2csc3c(NC4CCOC4)ncnc23)c1F (stereo not shown) [Example 88, 4-(Tetrahydro-furan-3-ylamino)-thieno[3,2-d] pyrimidine-7-carboxylic acid [2,3,6-trifluoro-5-(propane-1-sulfonyl-amino)-phenyl]-amide]	–	< 1000	120
CCCS(=O)(=O)Nc1cc(F)c(F)c(NC(=O)c2csc3c(NCCF)ncnc23)c1F [Example 89, 4-(2-Fluoro-ethylamino)-thieno[3,2-d] pyrimidine-7-carboxylic acid [2,3,6-trifluoro-5-(propane-1-sulfonyl-amino)e-phenyl]-amid]	< 100	< 1000	3.7
CCCS(=O)(=O)Nc1cc(F)c(F)c(NC(=O)c2csc3c(NCC(F)F)ncnc23)c1F [Example 90, 4-(2,2-Difluoro-ethylamino)-thieno[3,2-d] pyrimidine-7-carboxylic acid [2,3,6-trifluoro-5-(propane-1-sulfonyl-amino)-phenyl]-amide]	< 100	< 1000	16
CCCS(=O)(=O)Nc1cc(F)c(F)c(NC(=O)c2csc3c(NC(C)C)ncnc23)c1F [Example 91, 4-Isopropyl-amino-thieno [3,2-d] pyrimidine-7-carboxylic acid [2,3,6-trifluoro-5-(propane-1-sulfonyl-amino)-phenyl]-amide]	< 100	< 1000	27.9
CCCS(=O)(=O)Nc1cc(F)c(F)c(NC(=O)c2csc3c(NC)ncnc23)c1F [Example 92, 4-Methyl-amino-thieno[3,2-d] pyrimidine-7-carboxylic acid [2,3,6-trifluoro-5-(propane-1-sulfonyl-amino)-phenyl]-amide]	< 100	< 1000	13.2
CCCS(=O)(=O)Nc1cc(F)c(F)c(NC(=O)c2csc3c(NC4CC(F)(F)C4)ncnc23)c1F [Example 93, 4-(3,3-Difluoro-cyclobutyl-amino)-thieno[3,2-d] pyrimidine-7-carboxylic acid [2,3,6-trifluoro-5-(propane-1-sulfonyl-amino)-phenyl]-amide]	–	< 1000	118
CCCS(=O)(=O)Nc1cc(F)c(F)c(NC(=O)c2csc3c(NC4CCOCC4)ncnc23)c1F [Example 94, 4-(Tetrahydro-pyran-4-ylamino)-thieno[3,2-d] pyrimidine-7-carboxylic acid [2,3,6-trifluoro-5-(propane-1-sulfonyl-amino)-phenyl]-amide]	–	< 1000	704
CCCS(=O)(=O)Nc1cc(F)c(F)c(NC(=O)c2csc3c(NN4CCOCC4)ncnc23)c1F [Example 95, 4-(Morpholin-4-ylamino)-thieno[3,2-d] pyrimidine-7-carboxylic acid [2,3,6-trifluoro-5-(propane-1-sulfonyl-amino)-phenyl]-amide]	< 100	< 1000	5.09
O=C(Nc1c(F)c(F)cc(NS(=O)(=O)CCCF)c1F)c1csc2c(NC3CC3)ncnc12 [Example 97, 4-Cyclopropyl-amino-thieno [3,2-d] pyrimidine-7-carboxylic acid [2,3,6-trifluoro-5-(3-fluoro-propane-1-sulfonyl-amino)-phenyl]-amide]	< 100	< 1000	0.71
CCNc1ncnc2c(C(=O)Nc3c(F)c(F)cc(NS(=O)(=O)CCCF)c3F)csc12 [Example 98, 4-Ethylamino-thieno[3,2-d] pyrimidine-7-carboxylic acid [2,3,6-trifluoro-5-(3-fluoro-propane-1-sulfonyl-amino)-phenyl]-amide]	< 100	< 1000	2.16
CCCS(=O)(=O)Nc1ccc(F)c(NC(=O)c2sc(C)c3c(N)ncnc23)c1F [Example 99, 4-Amino-5-methyl-thieno[3,4-a]pyrimidine-7-carboxylic acid [2,6-difluoro-3-(propane-1-sulfonylamino)-phenyl]-amide]	< 100	< 1000	3
